Measured values: patent US12043599B2, “Herbicidal compounds” (SYNGENTA PARTICIPATIONS AG, priority 2018, dated 2024)

Tests used:
Assay type in all cases: in vivo
Settings in all cases: 250 g/h, evaluated after 13 days
[1] = tested on: Alopecurus myosuroides (ALOMY); assay: Post-emergence herbicidal glasshouse test, percentage damage
Method in brief: (§1)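 Pots of the weeds sprayed either 1 day after sowing (pre-emergence) or after 8 days' growth (post-emergence), at 250 g/h in acetone/water with 0.5% Tween 20. Grown in a glasshouse at 24/16° C. day/night with 14 h light and 65% humidity. Damage scored 13 days later on a 1–5 scale (5=80-100%, 1=0-19%).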

[2] = tested on: Lolium perenne (LOLPE); assay: as above
Method in brief: as §1

[3] = tested on: Echinochloa crus-galli (ECHCG); assay: as above
Method in brief: as §1

[4] = tested on: Avena fatua (AVEFA); assay: as above
Method in brief: as §1

[5] = tested on: Setaria faberi (SETFA); assay: Pre-emergence herbicidal glasshouse test, percentage damage
Method in brief: as §1

[6] = tested on: Alopecurus myosuroides (ALOMY); assay: as above
Method in brief: as §1

[7] = tested on: Lolium perenne (LOLPE); assay: as above
Method in brief: as §1

[8] = tested on: Echinochloa crus-galli (ECHCG); assay: as above
Method in brief: as §1

[9] = tested on: Avena fatua (AVEFA); assay: as above
Method in brief: as §1

[10] = tested on: Setaria faberi (SETFA); assay: Post-emergence herbicidal glasshouse test, percentage damage
Method in brief: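 Wheat, barley and Setaria faberi were sprayed post-emergence after 8 days' growth (24/16 °C, 14 h light, 65% humidity) with compound in acetone/water (50:50) containing 0.5% Tween 20, at the indicated rates. On wheat, compounds were also applied with cloquintocet-mexyl at 50 g/ha. Damage was scored after 13 days on a five-point scale (5=80-100% to 1=0-19%).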

Row | Compound | ALOMY POST percentage damage (five point scale) [1] | LOLPE POST percentage damage (five point scale) [2] | ECHCG POST percentage damage (five point scale) [3] | AVEFA POST percentage damage (five point scale) [4] | SETFA PRE percentage damage (five point scale) [5] | ALOMY PRE percentage damage (five point scale) [6] | LOLPE PRE percentage damage (five point scale) [7] | ECHCG PRE percentage damage (five point scale) [8] | AVEFA PRE percentage damage (five point scale) [9] | SETFA POST percentage damage (five point scale) [10]
1 | CC#Cc1cc(C)c(C2C(=O)CC3(CCN(C(=O)NC(=O)c4ncccc4F)CC3)CC2=O)c(C)c1 [Compound A163] | 5 (5=80-100%) | 5 (5=80-100%) | 5 (5=80-100%) | 5 (5=80-100%) | 5 (5=80-100%) | 0 | 4 (4=60-79%) | 5 (5=80-100%) | 5 (5=80-100%) | 5 (5=80-100%)
2 | CC#Cc1cc(C)c(C2C(=O)CC3(CCN(C(=O)NC(=O)c4cc(F)ccn4)CC3)CC2=O)c(C)c1 [Compound A164] | 5 (5=80-100%) | 5 (5=80-100%) | 5 (5=80-100%) | 5 (5=80-100%) | 5 (5=80-100%) | 4 (4=60-79%) | 5 (5=80-100%) | 5 (5=80-100%) | 5 (5=80-100%) | 5 (5=80-100%)
3 | CC#Cc1cc(C)c(C2C(=O)CC3(CCN(C(=O)N(C)C(=O)C(C)(C)C)CC3)CC2=O)c(C)c1 [Compound A165] | 5 (5=80-100%) | 5 (5=80-100%) | 5 (5=80-100%) | 5 (5=80-100%) | 5 (5=80-100%) | 4 (4=60-79%) | 4 (4=60-79%) | 5 (5=80-100%) | 4 (4=60-79%) | 5 (5=80-100%)
4 | CC#Cc1cc(C)c(C2C(=O)CC3(CCN(C(=O)NC(=O)c4ccccc4)CC3)CC2=O)c(C)c1 [Compound A166] | 5 (5=80-100%) | 5 (5=80-100%) | 5 (5=80-100%) | 5 (5=80-100%) | 5 (5=80-100%) | 5 (5=80-100%) | 5 (5=80-100%) | 4 (4=60-79%) | 4 (4=60-79%) | 5 (5=80-100%)
5 | CC#Cc1cc(C)c(C2C(=O)CC3(CCN(C(=O)NC(=O)c4ccccc4F)CC3)CC2=O)c(C)c1 [Compound A167] | 5 (5=80-100%) | 5 (5=80-100%) | 5 (5=80-100%) | 5 (5=80-100%) | 5 (5=80-100%) | 4 (4=60-79%) | 5 (5=80-100%) | 5 (5=80-100%) | 4 (4=60-79%) | 5 (5=80-100%)
6 | CC#Cc1cc(C)c(C2C(=O)CC3(CCN(C(=O)NC(=O)c4ccc(C(F)(F)F)cn4)CC3)CC2=O)c(C)c1 [Compound A168] | 4 (4=60-79%) | 4 (4=60-79%) | 5 (5=80-100%) | 4 (4=60-79%) | 5 (5=80-100%) | 4 (4=60-79%) | 4 (4=60-79%) | 5 (5=80-100%) | 4 (4=60-79%) | 4 (4=60-79%)
7 | CC#Cc1cc(C)c(C2C(=O)CC3(CCN(C(=O)NC(C)(C)CC)CC3)CC2=O)c(C)c1 [Compound A169] | 5 (5=80-100%) | 5 (5=80-100%) | 5 (5=80-100%) | 5 (5=80-100%) | 5 (5=80-100%) | 5 (5=80-100%) | 5 (5=80-100%) | 5 (5=80-100%) | 5 (5=80-100%) | 5 (5=80-100%)
8 | CC#Cc1cc(C)c(C2C(=O)CC3(CCN(C(=O)C4=COCCO4)CC3)CC2=O)c(C)c1 [Compound A170] | 5 (5=80-100%) | 5 (5=80-100%) | 5 (5=80-100%) | 5 (5=80-100%) | 4 (4=60-79%) | 4 (4=60-79%) | 4 (4=60-79%) | 3 (3=40-59%) | 2 (2=20-39%) | 5 (5=80-100%)
9 | CC#Cc1cc(C)c(C2C(=O)CC3(CCN(C(=O)COC(C)C)CC3)CC2=O)c(C)c1 [Compound A171] | 5 (5=80-100%) | 5 (5=80-100%) | 5 (5=80-100%) | 5 (5=80-100%) | 5 (5=80-100%) | 5 (5=80-100%) | 5 (5=80-100%) | 5 (5=80-100%) | 5 (5=80-100%) | 5 (5=80-100%)
10 | CC#Cc1cc(C)c(C2C(=O)CC3(CCN(C(=O)CCOCC)CC3)CC2=O)c(C)c1 [Compound A172] | 5 (5=80-100%) | 5 (5=80-100%) | 5 (5=80-100%) | 5 (5=80-100%) | 5 (5=80-100%) | 5 (5=80-100%) | 5 (5=80-100%) | 5 (5=80-100%) | 5 (5=80-100%) | 5 (5=80-100%)
11 | CC#Cc1cc(C)c(C2C(=O)CC3(CCN(C(=O)[C@H]4COCCO4)CC3)CC2=O)c(C)c1 [Compound A173] | 5 (5=80-100%) | 5 (5=80-100%) | 5 (5=80-100%) | 5 (5=80-100%) | 5 (5=80-100%) | 5 (5=80-100%) | 5 (5=80-100%) | 5 (5=80-100%) | 5 (5=80-100%) | 5 (5=80-100%)
